# Experiment: Toxicokinetics of infigratinib in juvenile rat plasma after oral gavage
# Format: in vivo, Crl:WI(Han) rat
# Settings: for RAUC: AUC vs first dosing day; for AUC(0-t) / Cmax / half-life / Tmax: Crl:WI(Han), rat, plasma, po
# [1] = Female rats, 0.1 mg/kg/day oral, PND 7
# [2] = Female rats, 0.1 mg/kg/day oral, PND 12
# [3] = Female rats, 0.1 mg/kg/day oral, PND 17
# [4] = Female rats, 0.1 mg/kg/day oral, PND 23
# [5] = Female rats, 0.1 mg/kg/day oral, PND 35
# [6] = Female rats, 0.3 mg/kg/day oral, PND 7
# [7] = Female rats, 0.3 mg/kg/day oral, PND 12
# [8] = Female rats, 0.3 mg/kg/day oral, PND 17
# [9] = Female rats, 0.3 mg/kg/day oral, PND 23
# [10] = Female rats, 0.3 mg/kg/day oral, PND 35
# [11] = Female rats, 1.0 mg/kg/day oral, PND 7
# [12] = Female rats, 1.0 mg/kg/day oral, PND 12
# [13] = Female rats, 1.0 mg/kg/day oral, PND 17
# [14] = Female rats, 1.0 mg/kg/day oral, PND 23
# [15] = Female rats, 1.0 mg/kg/day oral, PND 35
# [16] = Male rats, 0.1 mg/kg/day oral, PND 7
# [17] = Male rats, 0.1 mg/kg/day oral, PND 12
# [18] = Male rats, 0.1 mg/kg/day oral, PND 17
# [19] = Male rats, 0.1 mg/kg/day oral, PND 23
# [20] = Male rats, 0.1 mg/kg/day oral, PND 35
# [21] = Male rats, 0.3 mg/kg/day oral, PND 7
# [22] = Male rats, 0.3 mg/kg/day oral, PND 12
# [23] = Male rats, 0.3 mg/kg/day oral, PND 17
# [24] = Male rats, 0.3 mg/kg/day oral, PND 23
# [25] = Male rats, 0.3 mg/kg/day oral, PND 35
# [26] = Male rats, 1.0 mg/kg/day oral, PND 7
# [27] = Male rats, 1.0 mg/kg/day oral, PND 12
# [28] = Male rats, 1.0 mg/kg/day oral, PND 17
# [29] = Male rats, 1.0 mg/kg/day oral, PND 23
# [30] = Male rats, 1.0 mg/kg/day oral, PND 35
# [31] = female, 0.1 mg/kg/day, Female rats, 0.1 mg/kg/day oral, PND 7
# [32] = female, 0.1 mg/kg/day, Female rats, 0.1 mg/kg/day oral, PND 12
# [33] = female, 0.1 mg/kg/day, Female rats, 0.1 mg/kg/day oral, PND 23
# [34] = female, 0.1 mg/kg/day, Female rats, 0.1 mg/kg/day oral, PND 35
# [35] = female, 0.3 mg/kg/day, Female rats, 0.3 mg/kg/day oral, PND 7
# [36] = female, 0.3 mg/kg/day, Female rats, 0.3 mg/kg/day oral, PND 12
# [37] = female, 0.3 mg/kg/day, Female rats, 0.3 mg/kg/day oral, PND 23
# [38] = female, 0.3 mg/kg/day, Female rats, 0.3 mg/kg/day oral, PND 35
# [39] = female, 1 mg/kg/day, Female rats, 1.0 mg/kg/day oral, PND 7
# [40] = female, 1 mg/kg/day, Female rats, 1.0 mg/kg/day oral, PND 12
# [41] = female, 1 mg/kg/day, Female rats, 1.0 mg/kg/day oral, PND 23
# [42] = female, 1 mg/kg/day, Female rats, 1.0 mg/kg/day oral, PND 35
# [43] = male, 0.1 mg/kg/day, Male rats, 0.1 mg/kg/day oral, PND 7
# [44] = male, 0.1 mg/kg/day, Male rats, 0.1 mg/kg/day oral, PND 12
# [45] = male, 0.1 mg/kg/day, Male rats, 0.1 mg/kg/day oral, PND 23
# [46] = male, 0.1 mg/kg/day, Male rats, 0.1 mg/kg/day oral, PND 35
# [47] = male, 0.3 mg/kg/day, Male rats, 0.3 mg/kg/day oral, PND 7
# [48] = male, 0.3 mg/kg/day, Male rats, 0.3 mg/kg/day oral, PND 12
# [49] = male, 0.3 mg/kg/day, Male rats, 0.3 mg/kg/day oral, PND 23
# [50] = male, 0.3 mg/kg/day, Male rats, 0.3 mg/kg/day oral, PND 35
# [51] = male, 1 mg/kg/day, Male rats, 1.0 mg/kg/day oral, PND 7
# [52] = male, 1 mg/kg/day, Male rats, 1.0 mg/kg/day oral, PND 12
# [53] = male, 1 mg/kg/day, Male rats, 1.0 mg/kg/day oral, PND 23
# [54] = male, 1 mg/kg/day, Male rats, 1.0 mg/kg/day oral, PND 35
smiles,measurement,setting,value
"CCN1CCN(c2ccc(Nc3cc(N(C)C(=O)Nc4c(Cl)c(OC)cc(OC)c4Cl)ncn3)cc2)CC1 [infigratinib, 3-(2,6-Dichloro-3,5-dimethoxy-phenyl)-1-{6-[4-(4-ethyl-piperazin-1-yl)-phenylamino]-pyrimidin-4-yl}-1-methyl-urea]",Cmax/D,[1],41.8 (ng/mL)/(mg/kg/day)
same,Tlast,[1],24 h
same,Cmax/D,[2],34.0 (ng/mL)/(mg/kg/day)
same,Tlast,[2],24 h
same,RAUC,[2],0.941 ratio
same,Cmax/D,[3],90.6 (ng/mL)/(mg/kg/day)
same,Tlast,[3],24 h
same,RAUC,[3],0.839 ratio
same,Cmax/D,[4],7.8 (ng/mL)/(mg/kg/day)
same,Tlast,[4],12 h
same,RAUC,[4],0.108 ratio
same,Cmax/D,[5],3.0 (ng/mL)/(mg/kg/day)
same,Tlast,[5],7 h
same,RAUC,[5],0.0325 ratio
same,Cmax/D,[6],64.7 (ng/mL)/(mg/kg/day)
same,Tlast,[6],24 h
same,Cmax/D,[7],49.7 (ng/mL)/(mg/kg/day)
same,Tlast,[7],24 h
same,RAUC,[7],0.751 ratio
same,Cmax/D,[8],60.2 (ng/mL)/(mg/kg/day)
same,Tlast,[8],24 h
same,RAUC,[8],0.548 ratio
same,Cmax/D,[9],7.49 (ng/mL)/(mg/kg/day)
same,Tlast,[9],24 h
same,RAUC,[9],0.103 ratio
same,Cmax/D,[10],2.2 (ng/mL)/(mg/kg/day)
same,Tlast,[10],12 h
same,RAUC,[10],0.0249 ratio
same,Cmax/D,[11],53.2 (ng/mL)/(mg/kg/day)
same,Tlast,[11],24 h
same,Cmax/D,[12],56.6 (ng/mL)/(mg/kg/day)
same,Tlast,[12],24 h
same,RAUC,[12],1.15 ratio
same,Cmax/D,[13],41.2 (ng/mL)/(mg/kg/day)
same,Tlast,[13],24 h
same,RAUC,[13],0.974 ratio
same,Cmax/D,[14],10.4 (ng/mL)/(mg/kg/day)
same,Tlast,[14],24 h
same,RAUC,[14],0.141 ratio
same,Cmax/D,[15],4.04 (ng/mL)/(mg/kg/day)
same,Tlast,[15],12 h
same,RAUC,[15],0.0566 ratio
same,Cmax/D,[16],32.1 (ng/mL)/(mg/kg/day)
same,Tlast,[16],24 h
same,Cmax/D,[17],33.2 (ng/mL)/(mg/kg/day)
same,Tlast,[17],24 h
same,RAUC,[17],1.24 ratio
same,Cmax/D,[18],29.9 (ng/mL)/(mg/kg/day)
same,Tlast,[18],24 h
same,RAUC,[18],0.882 ratio
same,Cmax/D,[19],5.77 (ng/mL)/(mg/kg/day)
same,Tlast,[19],12 h
same,RAUC,[19],0.12 ratio
same,Cmax/D,[20],3.07 (ng/mL)/(mg/kg/day)
same,Tlast,[20],12 h
same,RAUC,[20],0.0613 ratio
same,Cmax/D,[21],38.8 (ng/mL)/(mg/kg/day)
same,Tlast,[21],24 h
same,Cmax/D,[22],47.1 (ng/mL)/(mg/kg/day)
same,Tlast,[22],24 h
same,RAUC,[22],1.3 ratio
same,Cmax/D,[23],27.1 (ng/mL)/(mg/kg/day)
same,Tlast,[23],24 h
same,RAUC,[23],0.898 ratio
same,Cmax/D,[24],7.1 (ng/mL)/(mg/kg/day)
same,Tlast,[24],24 h
same,RAUC,[24],0.187 ratio
same,Cmax/D,[25],3.08 (ng/mL)/(mg/kg/day)
same,Tlast,[25],12 h
same,RAUC,[25],0.0524 ratio
same,Cmax/D,[26],37.3 (ng/mL)/(mg/kg/day)
same,Tlast,[26],24 h
same,Cmax/D,[27],68.8 (ng/mL)/(mg/kg/day)
same,Tlast,[27],24 h
same,RAUC,[27],1.59 ratio
same,Cmax/D,[28],34.1 (ng/mL)/(mg/kg/day)
same,Tlast,[28],24 h
same,RAUC,[28],0.944 ratio
same,Cmax/D,[29],11.2 (ng/mL)/(mg/kg/day)
same,Tlast,[29],24 h
same,RAUC,[29],0.233 ratio
same,Cmax/D,[30],2.98 (ng/mL)/(mg/kg/day)
same,Tlast,[30],12 h
same,RAUC,[30],0.0648 ratio
same,AUC(0-t),[31],43 ng·h/mL
same,AUC(0-t),[32],40.5 ng·h/mL
same,AUC(0-t),[33],4.66 ng·h/mL
same,AUC(0-t),[34],1.4 ng·h/mL
same,Cmax,[31],4.18 ng/mL
same,Cmax,[32],3.4 ng/mL
same,Cmax,[33],0.78 ng/mL
same,Cmax,[34],0.3 ng/mL
same,half-life,"female, 0.1 mg/kg/day, T1/2, Female rats, 0.1 mg/kg/day oral, PND 7",4.7 h
same,half-life,"female, 0.1 mg/kg/day, T1/2, Female rats, 0.1 mg/kg/day oral, PND 12",5.66 h
same,Tmax,[31],3 h
same,Tmax,[32],3 h
same,Tmax,[33],3 h
same,Tmax,[34],1 h
same,AUC(0-t),[35],183 ng·h/mL
same,AUC(0-t),[36],137 ng·h/mL
same,AUC(0-t),[37],18.8 ng·h/mL
same,AUC(0-t),[38],4.54 ng·h/mL
same,Cmax,[35],19.4 ng/mL
same,Cmax,[36],14.9 ng/mL
same,Cmax,[37],2.25 ng/mL
same,Cmax,[38],0.66 ng/mL
same,half-life,"female, 0.3 mg/kg/day, T1/2, Female rats, 0.3 mg/kg/day oral, PND 7",4.26 h
same,half-life,"female, 0.3 mg/kg/day, T1/2, Female rats, 0.3 mg/kg/day oral, PND 12",3.82 h
same,half-life,"female, 0.3 mg/kg/day, T1/2, Female rats, 0.3 mg/kg/day oral, PND 23",4.53 h
same,Tmax,[35],3 h
same,Tmax,[36],3 h
same,Tmax,[37],3 h
same,Tmax,[38],3 h
same,AUC(0-t),[39],516 ng·h/mL
same,AUC(0-t),[40],593 ng·h/mL
same,AUC(0-t),[41],73 ng·h/mL
same,Cmax,[39],53.2 ng/mL
same,Cmax,[40],56.6 ng/mL
same,Cmax,[41],10.4 ng/mL
same,Cmax,[42],4.04 ng/mL
same,half-life,"female, 1 mg/kg/day, T1/2, Female rats, 1.0 mg/kg/day oral, PND 7",5.23 h
same,half-life,"female, 1 mg/kg/day, T1/2, Female rats, 1.0 mg/kg/day oral, PND 12",3.97 h
same,half-life,"female, 1 mg/kg/day, T1/2, Female rats, 1.0 mg/kg/day oral, PND 23",3.25 h
same,half-life,"female, 1 mg/kg/day, T1/2, Female rats, 1.0 mg/kg/day oral, PND 35",2.51 h
same,Tmax,[39],3 h
same,Tmax,[40],1 h
same,Tmax,[41],1 h
same,Tmax,[42],1 h
same,AUC(0-t),[43],31.9 ng·h/mL
same,AUC(0-t),[44],39.4 ng·h/mL
same,AUC(0-t),[45],3.81 ng·h/mL
same,AUC(0-t),[46],1.95 ng·h/mL
same,Cmax,[43],3.21 ng/mL
same,Cmax,[44],3.32 ng/mL
same,Cmax,[45],0.577 ng/mL
same,Cmax,[46],0.307 ng/mL
same,half-life,"male, 0.1 mg/kg/day, T1/2, Male rats, 0.1 mg/kg/day oral, PND 7",5.1 h
same,half-life,"male, 0.1 mg/kg/day, T1/2, Male rats, 0.1 mg/kg/day oral, PND 12",6.34 h
same,half-life,"male, 0.1 mg/kg/day, T1/2, Male rats, 0.1 mg/kg/day oral, PND 35",2.2 h
same,Tmax,[43],3 h
same,Tmax,[44],3 h
same,Tmax,[45],3 h
same,Tmax,[46],1 h
same,AUC(0-t),[47],114 ng·h/mL
same,AUC(0-t),[48],149 ng·h/mL
same,AUC(0-t),[49],21.5 ng·h/mL
same,AUC(0-t),[50],6 ng·h/mL
same,Cmax,[47],11.6 ng/mL
same,Cmax,[48],14.1 ng/mL
same,Cmax,[49],2.13 ng/mL
same,Cmax,[50],0.924 ng/mL
same,half-life,"male, 0.3 mg/kg/day, T1/2, Male rats, 0.3 mg/kg/day oral, PND 7",5.58 h
same,half-life,"male, 0.3 mg/kg/day, T1/2, Male rats, 0.3 mg/kg/day oral, PND 12",3.75 h
same,half-life,"male, 0.3 mg/kg/day, T1/2, Male rats, 0.3 mg/kg/day oral, PND 23",4.37 h
same,Tmax,[47],3 h
same,Tmax,[48],3 h
same,Tmax,[49],3 h
same,Tmax,[50],3 h
same,AUC(0-t),[51],375 ng·h/mL
same,AUC(0-t),[52],596 ng·h/mL
same,AUC(0-t),[53],87.2 ng·h/mL
same,AUC(0-t),[54],24.3 ng·h/mL
same,Cmax,[51],37.3 ng/mL
same,Cmax,[52],68.8 ng/mL
same,Cmax,[53],11.2 ng/mL
same,Cmax,[54],2.98 ng/mL
same,half-life,"male, 1 mg/kg/day, T1/2, Male rats, 1.0 mg/kg/day oral, PND 12",3.33 h
same,half-life,"male, 1 mg/kg/day, T1/2, Male rats, 1.0 mg/kg/day oral, PND 23",3.64 h
same,Tmax,[51],7 h
same,Tmax,[52],3 h
same,Tmax,[53],3 h
same,Tmax,[54],3 h

# Reference: publication PMC10784415 (Developmental dynamics : an official publication of the …, 2023)
